Source: paper PMC10522709, “Rational design and characterization of cell-selective antimicrobial peptides based on a bioactive peptide from Crocodylus siamensis hemoglobin” (Scientific Reports, 2023)
Ends that are not written are not given here.

tested on: human peripheral blood mononuclear cells (PBMC); format: cell-based; details: 24 h
Description: (§1) Human peripheral blood mononuclear cells (PBMC), African green monkey kidney cells (Vero), human keratinocyte cells (HaCaT) and mouse preadipocytes (3T3-L1) were used to evaluate the cytotoxicity of peptides by the MTT assay. PBMCs were isolated using Ficoll medium (GE Healthcare, Uppsala, Sweden) as described by Jangpromma et al.[28]. The PBMCs were then cultured in RPMI 1640, while Vero, HaCaT and 3T3-L1 cells were cultured in DMEM. All culture mediums were supplemented with 10% heat-inactivated fetal bovine serum (FBS) and 1% antibiotic:antimycotic (Gibco, USA). The cells were cultured at 37 °C with 5% CO2/95% relative humidity. After that, PBMC (2 × 10^6 cells/well), Vero (1 × 10^4 cells/well), HaCaT (1 × 10^4 cells/well) and 3T3-L1 (1 × 10^4 cells/well) were individually seeded into 96-well plate and cultured at 37 °C overnight. Next, two-fold serially diluted peptides (3.13–200 μg/mL) were added to the cell culture. After incubation in 5% (v/v) CO2 incubator for 24 h, the medium culture was removed and MTT solution ([…] final concentration in fresh medium culture) was added to the cells and incubated for 30 min. Thereafter, the medium was removed and DMSO (100 µL) was added to each well to dissolve the formazan crystals. The optical density at 570 nm was determined using a microplate reader (ALLSHENG, Zhejiang, China). The cytotoxicity of IL15.3 against Vero, HaCaT and 3T3-L1 cells in the absence of FBS was also measured by the MTT assay to confirm the peptide is not sequestered by proteins in the serum causing artificially low cytotoxicity against eukaryotic cells.
(§2) Cell viability was determined using the equation: %cellviability=OD570ofsample/OD570ofuntreatedcontrol×100
(§3) GraphPad Prism8 (San Diego, CA, USA) was used to calculate IC50 values using a non-linear regression model.

Sequence	IC50 PBMC [µg/mL]
QAIIHNEKVQAHGKKVL [QL17]	>200
IKHWKKVWKHWKKKL [IL15.4]	>200
IRHWRRVWRHWRRRL [IL15.5]	113
IIHNEKVQAHGKKVL [IL15]	>200
IKHWEKVWKHGKKVL [IL15.1]	>200
IKHWKKVWKHGKKVL [IL15.2]	>200

tested on: human keratinocyte cells (HaCaT); format: cell-based; details: 24 h
Description: as §1, §2, §3

Sequence	IC50 HaCaT [µg/mL]
QAIIHNEKVQAHGKKVL [QL17]	>200
IKHWKKVWKHWKKKL [IL15.4]	>200
IRHWRRVWRHWRRRL [IL15.5]	200
IIHNEKVQAHGKKVL [IL15]	>200
IKHWEKVWKHGKKVL [IL15.1]	>200
IKHWKKVWKHGKKVL [IL15.2]	>200

tested on: human erythrocytes; format: cell-based; details: red cells of human, 1 h
Description: Human whole blood was obtained from Blood Transfusion Center Faculty of Medicine Khon Kaen University (ethical approval number HE601010). Fresh human erythrocytes were carefully mixed with PBS (1:3) and centrifuged at 1000 × g for 2 min. The supernatant was discarded and the cell pellet was resuspended to 2% w/v in PBS. 100 µL of the resuspended erythrocytes were incubated with the peptide (10 µL, final concentrations ranging from 12.5 to 100 μg/mL, two-fold serial dilution) at 37 °C for 1 h. After the treatment, the plate was centrifuged and the supernatant was taken to determine the optical density at 415 nm using a microplate reader (ALLSHENG, Zhejiang, China). The positive control for this assay was the addition of Triton X-100 (1% v/v), which causes 100% hemolysis. The negative control was cells treated with PBS buffer only. The hemolysis activity was estimated using the equation: %hemolysis=OD415ofsample/OD415ofTritonX-100treatedcontrol×100

Sequence	Hemolysis concentration50 (HC50) [µg/mL]
QAIIHNEKVQAHGKKVL [QL17]	>2000
IKHWKKVWKHWKKKL [IL15.4]	>2000
IRHWRRVWRHWRRRL [IL15.5]	896
IIHNEKVQAHGKKVL [IL15]	>2000
IKHWEKVWKHGKKVL [IL15.1]	>2000
IKHWKKVWKHGKKVL [IL15.2]	>2000

tested on: Staphylococcus epidermidis (ATCC 12228); format: cell-based; details: ATCC 12228, 18 h
Description: (§4) Broth microdilution assays were performed as reported previously. In short, the bacteria including Escherichia coli (ATCC 25922), Klebsiella pneumoniae (ATCC 27736), Pseudomonas aeruginosa (ATCC 27853), Bacillus subtilis (ATCC 6633), Staphylococcus aureus (ATCC 25923) and Staphylococcus epidermidis (ATCC 12228) were grown in Nutrient broth to mid-log phase at 37 °C. The bacterial suspension (50 μL, concentration of 1 × 10^6 CFU/mL) was loaded into a well with serially diluted peptide (50 µL, final concentrations ranging from 0–200 μg/mL) in a sterile 96-well plate and incubated at 37 °C for 18 h. The optical density (OD) at 600 nm was measured using a microplate reader (ALLSHENG, Zhejiang, China) in order to determine the growth of the bacteria. The inhibition was estimated using the formula; %inhibition=OD600ofcontrol-OD600ofsample/OD600ofcontrol-OD600ofblank×100 where minimal inhibitory concentration (MIC) is defined as the minimum concentration that inhibited 90% of bacterial growth.

Sequence	MIC [µg/mL]
QAIIHNEKVQAHGKKVL [QL17]	> 200
IKHWKKVWKHWKKKL [IL15.4]	9
IRHWRRVWRHWRRRL [IL15.5]	12
IIHNEKVQAHGKKVL [IL15]	> 200
IKHWEKVWKHGKKVL [IL15.1]	> 200
IKHWKKVWKHGKKVL [IL15.2]	> 200

tested on: several bacterial strains; format: cell-based; details: 18 h
Description: as §4

Sequence	MIC, over all strains tested [µg/mL]
QAIIHNEKVQAHGKKVL [QL17]	> 200
IRHWRRVWRHWRRRL [IL15.5]	8 to 75
IIHNEKVQAHGKKVL [IL15]	> 200
IKHWEKVWKHGKKVL [IL15.1]	> 200

same assay, conditions: towards gram-negative bacteria

Sequence	increase of SI in comparison with IL15.2
IKHWKKVWKHWKKKL [IL15.4]	approximately 6 fold

same assay, conditions: towards gram-positive bacteria

Sequence	increase of SI in comparison with IL15.2 [fold]
IKHWKKVWKHWKKKL [IL15.4]	~25

tested on: Escherichia coli (ATCC 25922); format: cell-based; details: ATCC 25922, 18 h
Description: as §4

Sequence	MIC [µg/mL]
QAIIHNEKVQAHGKKVL [QL17]	> 200
IKHWKKVWKHWKKKL [IL15.4]	4
IRHWRRVWRHWRRRL [IL15.5]	15
IIHNEKVQAHGKKVL [IL15]	> 200
IKHWEKVWKHGKKVL [IL15.1]	> 200
IKHWKKVWKHGKKVL [IL15.2]	100

tested on: Bacillus subtilis (ATCC 6633); format: cell-based; details: ATCC 6633, 18 h
Description: as §4

Sequence	MIC [µg/mL]
QAIIHNEKVQAHGKKVL [QL17]	> 200
IKHWKKVWKHWKKKL [IL15.4]	6
IRHWRRVWRHWRRRL [IL15.5]	8
IIHNEKVQAHGKKVL [IL15]	> 200
IKHWEKVWKHGKKVL [IL15.1]	> 200
IKHWKKVWKHGKKVL [IL15.2]	50

tested on: Klebsiella pneumoniae (ATCC 27736); format: cell-based; details: ATCC 27736, 18 h
Description: as §4

Sequence	MIC [µg/mL]
QAIIHNEKVQAHGKKVL [QL17]	> 200
IKHWKKVWKHWKKKL [IL15.4]	14
IRHWRRVWRHWRRRL [IL15.5]	75
IIHNEKVQAHGKKVL [IL15]	> 200
IKHWEKVWKHGKKVL [IL15.1]	> 200
IKHWKKVWKHGKKVL [IL15.2]	> 200

tested on: Pseudomonas aeruginosa (ATCC 27853); format: cell-based; details: ATCC 27853, 18 h
Description: as §4

Sequence	MIC [µg/mL]
QAIIHNEKVQAHGKKVL [QL17]	> 200
IKHWKKVWKHWKKKL [IL15.4]	10
IRHWRRVWRHWRRRL [IL15.5]	35
IIHNEKVQAHGKKVL [IL15]	> 200
IKHWEKVWKHGKKVL [IL15.1]	> 200
IKHWKKVWKHGKKVL [IL15.2]	> 200

tested on: Staphylococcus aureus (ATCC 25923); format: cell-based; details: ATCC 25923, 18 h
Description: as §4

Sequence	MIC [µg/mL]
QAIIHNEKVQAHGKKVL [QL17]	> 200
IKHWKKVWKHWKKKL [IL15.4]	12
IRHWRRVWRHWRRRL [IL15.5]	25
IIHNEKVQAHGKKVL [IL15]	> 200
IKHWEKVWKHGKKVL [IL15.1]	> 200
IKHWKKVWKHGKKVL [IL15.2]	> 200

tested on: Staphylococcus epidermidis (ATCC 12228); format: cell-based; details: ATCC 12228, 24 h
Description: as §4
(§5) In order to evaluate the minimal bactericidal concentration (MBC)—the lowest concentration that terminates the growth of bacteria on an agar plate—of the peptide, co-culture medium (100 μL) from each well after the microdilution assay was spread on a nutrient agar plate. Plates were maintained at 37 °C for 24 h and the number of colonies formed was counted to evaluate antimicrobial activity.

Sequence	MBC [µg/mL]
QAIIHNEKVQAHGKKVL [QL17]	> 200
IKHWKKVWKHWKKKL [IL15.4]	12
IRHWRRVWRHWRRRL [IL15.5]	15
IIHNEKVQAHGKKVL [IL15]	> 200
IKHWEKVWKHGKKVL [IL15.1]	> 200
IKHWKKVWKHGKKVL [IL15.2]	> 200

tested on: Escherichia coli (ATCC 25922); format: cell-based; details: ATCC 25922, 24 h
Description: as §4, §5

Sequence	MBC [µg/mL]
QAIIHNEKVQAHGKKVL [QL17]	> 200
IKHWKKVWKHWKKKL [IL15.4]	6
IRHWRRVWRHWRRRL [IL15.5]	25
IIHNEKVQAHGKKVL [IL15]	> 200
IKHWEKVWKHGKKVL [IL15.1]	> 200
IKHWKKVWKHGKKVL [IL15.2]	150

tested on: Bacillus subtilis (ATCC 6633); format: cell-based; details: ATCC 6633, 24 h
Description: as §4, §5

Sequence	MBC [µg/mL]
QAIIHNEKVQAHGKKVL [QL17]	> 200
IKHWKKVWKHWKKKL [IL15.4]	10
IRHWRRVWRHWRRRL [IL15.5]	12
IIHNEKVQAHGKKVL [IL15]	> 200
IKHWEKVWKHGKKVL [IL15.1]	> 200
IKHWKKVWKHGKKVL [IL15.2]	60

tested on: Klebsiella pneumoniae (ATCC 27736); format: cell-based; details: ATCC 27736, 24 h
Description: as §4, §5

Sequence	MBC [µg/mL]
QAIIHNEKVQAHGKKVL [QL17]	> 200
IKHWKKVWKHWKKKL [IL15.4]	50
IRHWRRVWRHWRRRL [IL15.5]	100
IIHNEKVQAHGKKVL [IL15]	> 200
IKHWEKVWKHGKKVL [IL15.1]	> 200
IKHWKKVWKHGKKVL [IL15.2]	> 200

tested on: Pseudomonas aeruginosa (ATCC 27853); format: cell-based; details: ATCC 27853, 24 h
Description: as §4, §5

Sequence	MBC [µg/mL]
QAIIHNEKVQAHGKKVL [QL17]	> 200
IKHWKKVWKHWKKKL [IL15.4]	14
IRHWRRVWRHWRRRL [IL15.5]	50
IIHNEKVQAHGKKVL [IL15]	> 200
IKHWEKVWKHGKKVL [IL15.1]	> 200
IKHWKKVWKHGKKVL [IL15.2]	> 200

tested on: Staphylococcus aureus (ATCC 25923); format: cell-based; details: ATCC 25923, 24 h
Description: as §4, §5

Sequence	MBC [µg/mL]
QAIIHNEKVQAHGKKVL [QL17]	> 200
IKHWKKVWKHWKKKL [IL15.4]	25
IRHWRRVWRHWRRRL [IL15.5]	50
IIHNEKVQAHGKKVL [IL15]	> 200
IKHWEKVWKHGKKVL [IL15.1]	> 200
IKHWKKVWKHGKKVL [IL15.2]	> 200
